From PubChem BioAssay AID248 (DTP/NCI, 2004)
Where “and” joins values, the source holds several entries; their conditions need not be identical. Equal entries are not always repeated. Inconclusive results and toxic doses are left out. Rule as the data show it: active = T/C of 150% or more; inactive = T/C below 125%.

Test system: L1210 leukemia ip in BDF1 mice, survival T/C
Assay: NCI In Vivo Anticancer Drug Screen. Data for tumor model L1210 Leukemia (intraperitoneal) in B6D2F1 (BDF1) mice
Details: endpoint: mean survival time, higher = longer survival
Summary of the method: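 Antitumor effect is assessed in tumor-bearing animals. Survival in the compound arm is compared with a vehicle-dosed control arm and expressed as their quotient.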

[1] = dose: 100.0 mg/kg/injection, schedule: Q04DX002 (ip), vehicle: Klucel (hydroxypropylcellulose) (HPC)
[2] = dose: 200.0 mg/kg/injection, schedule: Q04DX002 (ip), vehicle: Klucel (hydroxypropylcellulose) (HPC)
[3] = dose: 400.0 mg/kg/injection, schedule: Q04DX002 (ip), vehicle: Klucel (hydroxypropylcellulose) (HPC)
[4] = dose: 6.25 mg/kg/injection, schedule: Q01DX009 (ip), vehicle: Klucel (hydroxypropylcellulose) (HPC)
[5] = dose: 12.5 mg/kg/injection, schedule: Q01DX009 (ip), vehicle: Klucel (hydroxypropylcellulose) (HPC)
[6] = dose: 25.0 mg/kg/injection, schedule: Q01DX009 (ip), vehicle: Klucel (hydroxypropylcellulose) (HPC)
[7] = dose: 100.0 mg/kg/injection, schedule: Q04DX003 (ip), vehicle: saline with Tween-80
[8] = dose: 200.0 mg/kg/injection, schedule: Q04DX003 (ip), vehicle: saline with Tween-80
[9] = dose: 400.0 mg/kg/injection, schedule: Q04DX003 (ip), vehicle: saline with Tween-80
[10] = dose: 100.0 mg/kg/injection, schedule: Q01DX001 (ip), vehicle: Klucel (hydroxypropylcellulose) (HPC)
[11] = dose: 200.0 mg/kg/injection, schedule: Q01DX001 (ip), vehicle: Klucel (hydroxypropylcellulose) (HPC)
[12] = dose: 100.0 mg/kg/injection, schedule: Q01DX009 (ip), vehicle: Klucel (hydroxypropylcellulose) (HPC)
[13] = dose: 200.0 mg/kg/injection, schedule: Q01DX009 (ip), vehicle: Klucel (hydroxypropylcellulose) (HPC)
[14] = dose: 400.0 mg/kg/injection, schedule: Q01DX001 (ip), vehicle: Klucel (hydroxypropylcellulose) (HPC)
[15] = dose: 400.0 mg/kg/injection, schedule: Q01DX009 (ip), vehicle: Klucel (hydroxypropylcellulose) (HPC)
[16] = dose: 100.0 mg/kg/injection, schedule: Q04DX003 (ip), vehicle: Klucel (hydroxypropylcellulose) (HPC)
[17] = dose: 200.0 mg/kg/injection, schedule: Q04DX003 (ip), vehicle: Klucel (hydroxypropylcellulose) (HPC)
[18] = dose: 400.0 mg/kg/injection, schedule: Q04DX003 (ip), vehicle: Klucel (hydroxypropylcellulose) (HPC)
[19] = dose: 100.0 mg/kg/injection, schedule: Q01DX001 (ip), vehicle: other
[20] = dose: 200.0 mg/kg/injection, schedule: Q01DX001 (ip), vehicle: other
[21] = dose: 400.0 mg/kg/injection, schedule: Q01DX001 (ip), vehicle: other

Measured: T/C

Cc1cc(-c2ccc(NS(=O)(=O)c3ccccc3)c(C)c2)ccc1NS(=O)(=O)c1ccccc1
inactive: dose: 25.0 mg/kg/injection, schedule: Q01DX001 (ip), vehicle: saline with Tween-80 95 % of control | dose: 50.0 mg/kg/injection, schedule: Q01DX001 (ip), vehicle: saline with Tween-80 98 % of control | dose: 100.0 mg/kg/injection, schedule: Q01DX001 (ip), vehicle: saline with Tween-80 92 % of control and 104 % of control | dose: 200.0 mg/kg/injection, schedule: Q01DX001 (ip), vehicle: saline with Tween-80 89 % of control

C/C=C/CC1(CCCC)C(=O)NC(=O)NC1=O
inactive: dose: 75.0 mg/kg/injection, schedule: Q01DX001 (ip), vehicle: saline 106 % of control | dose: 150.0 mg/kg/injection, schedule: Q01DX001 (ip), vehicle: saline 102 % of control

Cc1c(F)cccc1OCC(=O)O
inactive: [1] 111 % of control | [2] 108 % of control | [3] 105 % of control

CCOC(=O)Nc1cc2c(c(N)n1)N=C(CN(C)c1ccccc1)CN2
active: dose: 50.0 mg/kg/injection, schedule: Q04DX002 (ip), vehicle: Klucel (hydroxypropylcellulose) (HPC) 196 % of control | [1] 183 % of control
inactive: dose: 5.0 mg/kg/injection, schedule: Q01DX009 (ip), vehicle: Klucel (hydroxypropylcellulose) (HPC) 101 % of control | [4] 116 % of control | [5] 118 % of control | dose: 15.0 mg/kg/injection, schedule: Q01DX009 (ip), vehicle: Klucel (hydroxypropylcellulose) (HPC) 98 % of control | [6] 120 % of control | [2] 96 % of control

CC(O)(c1cccc(Cl)c1)C(c1ccccc1)c1ccccn1 (stereo not drawn)
inactive: [7] 101 % of control and 100 % of control | [8] 92 % of control and 106 % of control | [9] 101 % of control and 106 % of control

CCSc1nc(C2NC(C(=O)O)CS2)cc(=O)[nH]1 (stereo not drawn)
inactive: dose: 50.0 mg/kg/injection, schedule: Q01DX001 (ip), vehicle: Klucel (hydroxypropylcellulose) (HPC) 98 % of control | [10] 98 % of control | [11] 97 % of control

CCCCN=Cc1ccccc1O.CCCCN=Cc1ccccc1O.[Cu]
inactive: [4] 91 % of control | dose: 12.5 mg/kg/injection, schedule: Q04DX002 (ip), vehicle: Klucel (hydroxypropylcellulose) (HPC) 107 % of control | [6] 97 % of control | dose: 25.0 mg/kg/injection, schedule: Q04DX002 (ip), vehicle: Klucel (hydroxypropylcellulose) (HPC) 89 % of control | [1] 104 % of control

CC(=O)Oc1cc(NC(=O)c2ccccc2)ccc1NC(=O)c1ccccc1
inactive: [10] 93 % of control | [12] 89 % of control | [11] 92 % of control | [13] 90 % of control | [14] 104 % of control | [15] 100 % of control

COc1c([N+](=O)[O-])cc2c(c1C)OCOC2
inactive: [5] 95 % of control | [6] 95 % of control | dose: 50.0 mg/kg/injection, schedule: Q01DX009 (ip), vehicle: Klucel (hydroxypropylcellulose) (HPC) 95 % of control | [10] 92 % of control | [11] 93 % of control | [14] 102 % of control

COc1cc2c(c3c1c(=O)c1ccccc1n3C)C=CC(C)(C)O2
inactive: dose: 6.0 mg/kg/injection, schedule: Q01DX001 (ip), vehicle: acetone 101 % of control | dose: 7.5 mg/kg/injection, schedule: Q01DX Z (ip), vehicle: other 106 % of control | dose: 12.0 mg/kg/injection, schedule: Q01DX001 (ip), vehicle: acetone 97 % of control | dose: 15.0 mg/kg/injection, schedule: Q01DX001 (ip), vehicle: other 97 % of control | dose: 15.0 mg/kg/injection, schedule: Q01DX Z (ip), vehicle: other 114 % of control | dose: 25.0 mg/kg/injection, schedule: Q01DX001 (ip), vehicle: acetone 105 % of control | dose: 30.0 mg/kg/injection, schedule: Q01DX001 (ip), vehicle: other 94 % of control | dose: 30.0 mg/kg/injection, schedule: Q01DX Z (ip), vehicle: other 122 % of control | dose: 50.0 mg/kg/injection, schedule: Q01DX001 (ip), vehicle: acetone 118 % of control | dose: 50.0 mg/kg/injection, schedule: Q01DX009 (ip), vehicle: acetone 103 % of control | dose: 60.0 mg/kg/injection, schedule: Q01DX001 (ip), vehicle: other 105 % of control | dose: 60.0 mg/kg/injection, schedule: Q01DX Z (ip), vehicle: other 103 % of control | dose: 100.0 mg/kg/injection, schedule: Q01DX001 (ip), vehicle: acetone 114 % of control | dose: 100.0 mg/kg/injection, schedule: Q01DX009 (ip), vehicle: acetone 91 % of control | dose: 120.0 mg/kg/injection, schedule: Q01DX001 (ip), vehicle: other 105 % of control | dose: 400.0 mg/kg/injection, schedule: Q01DX001 (ip), vehicle: acetone 116 % of control

O=C(c1ccccc1)C(Br)c1ccc([N+](=O)[O-])cc1 (stereo not drawn)
inactive: [12] 99 % of control | [16] 105 % of control | [13] 105 % of control | [17] 108 % of control | [15] 95 % of control | [18] 103 % of control

CN1c2ccc(Br)c[c]2[Sn]([c]2ccccc2)([c]2ccccc2)[c]2cc(Br)ccc21
inactive: [19] 91 % of control | [20] 96 % of control | [21] 96 % of control

CC(C)(C)CC(C)(C)c1ccc(OCCOc2ccccc2N)cc1
inactive: [7] 94 % of control | [8] 95 % of control | [9] 97 % of control

Cc1ccc(C(=O)N/N=C/C(CC(O)C(O)CO)=N/NC(=O)c2ccc(C)cc2)cc1 (stereo not drawn)
inactive: dose: 100.0 mg/kg/injection, schedule: Q04DX003 (ip), vehicle: alcohol 93 % of control | dose: 200.0 mg/kg/injection, schedule: Q04DX003 (ip), vehicle: alcohol 96 % of control

NC(=O)C1C2C=CC(O2)C1C(N)=O (stereo not drawn)
inactive: dose: 100.0 mg/kg/injection, schedule: Q04DX002 (ip), vehicle: saline 89 % of control | dose: 200.0 mg/kg/injection, schedule: Q04DX002 (ip), vehicle: saline 92 % of control

CN(C)C(=O)Sc1ccc(C(C)(C)C)cc1
inactive: [10] 95 % of control | [11] 90 % of control | [14] 112 % of control

COc1cc(O)c(OC(C)=O)cc1OC
inactive: dose: 100.0 mg/kg/injection, schedule: Q01DX001 (ip), vehicle: gum acacia 97 % of control | dose: 200.0 mg/kg/injection, schedule: Q01DX001 (ip), vehicle: gum acacia 97 % of control | dose: 400.0 mg/kg/injection, schedule: Q01DX001 (ip), vehicle: gum acacia 117 % of control

O=C(O)c1cccc2c1C(=O)c1c(Cl)cccc1C2=O
inactive: [1] 99 % of control | [2] 99 % of control | [3] 99 % of control

O=[N+]([O-])c1ccc(Oc2ccc(Br)cc2)cc1
inactive: [16] 104 % of control | [17] 104 % of control | [18] 93 % of control

OB1OB(OB2OB(O)O2)O1
inactive: dose: 50.0 mg/kg/injection, schedule: Q01DX001 (ip), vehicle: saline 92 % of control | dose: 100.0 mg/kg/injection, schedule: Q01DX001 (ip), vehicle: saline 92 % of control | dose: 200.0 mg/kg/injection, schedule: Q01DX001 (ip), vehicle: saline 108 % of control | dose: 400.0 mg/kg/injection, schedule: Q01DX001 (ip), vehicle: saline 113 % of control

O=C(C[P+](c1ccccc1)(c1ccccc1)c1ccccc1)c1ccc(Br)cc1
inactive: dose: 50.0 mg/kg/injection, schedule: Q01DX001 (ip), vehicle: other 100 % of control | [19] 87 % of control | [20] 103 % of control | [21] 105 % of control

Cc1cnc(C#N)c(Cl)n1
inactive: dose: 100.0 mg/kg/injection, schedule: Q01DX009 (ip), vehicle: saline with Tween-80 95 % of control | [7] 92 % of control | dose: 200.0 mg/kg/injection, schedule: Q01DX009 (ip), vehicle: saline with Tween-80 101 % of control | [8] 98 % of control | dose: 400.0 mg/kg/injection, schedule: Q01DX009 (ip), vehicle: saline with Tween-80 88 % of control | [9] 97 % of control
